Assays:
[1] = tested on: CTSK-overexpressing OCs on calf bone slice; assay: In vitro bone resorption imaging assay; format: cell-based, C57BL/6J mice; details: probe 5 μM, 37 °C, 2 h; Ex 660 nm, Em 710 nm; n = 3
Method: PS. RAW 264.7 cells and BMMs were maintained in an atmosphere of 5% CO2 and 95% humidified air at 37 °C. The medium was changed every day.
Cell cytotoxicity assay. MDA-MB-231/Luc and RAW 264.7 cells were seeded in 96-well plates (5×10^3 cells per well) for 24 h and then incubated with CTSK-APPA or CTSK-APP (5, 10, 20, 50 μM) or saline for 24 h. The medium was removed and cells were incubated with CCK-8 (0.5 mg/mL) for another 1 h. The absorbance of the mixture at 450 nm was measured by using a microplate reader. Cell viability was expressed by the ratio of the absorbance of the cells incubated with the probes to that of the cells incubated with culture medium only.
In vitro osteoclast differentiation. Bone marrow-derived macrophages were isolated from the femurs and tibias of 4-week-old C57BL/6J mice and cultured in a complete medium containing M-CSF (30 ng/mL) for 4 days. BMMs were harvested to the 24-well plates (1×10^4 per well) and cultured in the complete medium containing M-CSF (30 ng/mL) and RANKL (100 ng/mL) for another 4 days. The osteoclasts were fixed and stained by using acid phosphatase and a leukocyte kit according to the manufacturer’s procedures.
In vitro bone resorption imaging assay. […]
Fluorescence images were captured by using the IVIS Spectrum imaging system with excitation […]

[2] = tested on: MDA-MB-231/Luc-induced osteolytic metastasis; assay: Real-time NIR fluorescence and PA imaging of osteolytic metastasis; format: in vivo, BALB/c nude mice; details: i.v. 50 μM, 200 μL; imaged 0-24 h; n = 3
Method: page 5: PS. RAW 264.7 cells and BMMs were maintained in an atmosphere of 5% CO2 and 95% humidified air at 37 °C. The medium was changed every day. Cell cytotoxicity assay. MDA-MB-231/Luc and RAW 264.7 cells were seeded in 96-well plates (5×10^3 cells per well) for 24 h and then incubated with CTSK-APPA or CTSK-APP (5, 10, 20, 50 μM) or saline for 24 h. The medium was removed and cells were incubated with CCK-8 (0.5 mg/mL) for another 1 h. The absorbance of the mixture at 450 nm was measured by using a microplate reader. Cell viability was expressed by the ratio of the absorbance of the cells incubated with the probes to that of the cells incubated with culture medium only. In vitro osteoclast differentiation. Bone marrow-derived macrophages were isolated from the femurs and tibias of 4-week-old C57BL/6J mice and cultured in a complete medium containing M-CSF (30 ng/mL) for 4 days. […] Fluorescence images were captured by using the IVIS Spectrum imaging system with excitation at 660 ± 10 nm and emission at 710 ± 10 nm. […] The bone marrow toxicity of CTSK-APPA and CTSK-APP was assessed by blood analyses in mice. […] The red blood count (RBC) and white blood count (WBC) were further measured. […] The supernatants containing excreted probes were quantified by using a UV-vis absorption spectrometer. […]

Substance: Cbz‐Leu‐Arg‐OH [CTSK-APPA]
- NIR fluorescence of bone-resorption slice vs normal bone slices [1]: stronger NIR fluorescence signal
- time of maximum NIR fluorescence and PA signal post-injection [2]: 4 h

From PMC10460880, “Cathepsin K‐Activated Probe for Fluoro‐Photoacoustic Imaging of Early Osteolytic Metastasis” (Advanced Science, 2023)
